In patent publication US9765092B2, “Tricyclic piperidine compounds” (ACTELION PHARMACEUTICALS LTD, priority 2013, dated 2017):

molecular target: human TPH1 (Homo sapiens (Human), UniProt P17752); experiment: Biochemical in vitro assay using fluorescence readout (TPH1 inhibition); conditions: full length human TPH1, 40 μM L-tryptophan, 15° C., 60 minutes, fluorescence at 540 nm; mean if determined several times
Sequence (P17752 whole entry): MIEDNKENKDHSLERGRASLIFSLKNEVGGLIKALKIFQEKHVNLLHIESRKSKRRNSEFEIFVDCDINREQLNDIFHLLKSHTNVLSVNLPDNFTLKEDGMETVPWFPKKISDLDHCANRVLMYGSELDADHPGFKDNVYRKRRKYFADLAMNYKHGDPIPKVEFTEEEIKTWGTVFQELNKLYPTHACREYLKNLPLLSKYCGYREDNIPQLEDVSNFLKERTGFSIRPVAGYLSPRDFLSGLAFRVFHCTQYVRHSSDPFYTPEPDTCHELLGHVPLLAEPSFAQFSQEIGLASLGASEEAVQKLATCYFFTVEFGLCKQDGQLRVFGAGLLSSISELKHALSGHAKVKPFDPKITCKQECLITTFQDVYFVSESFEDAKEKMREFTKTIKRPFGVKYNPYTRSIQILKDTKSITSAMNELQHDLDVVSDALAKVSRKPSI

Compound	IC50
Cc1nn2c3c(nc2s1)CCN(C(=O)COc1ccc(N2C[C@@H](C)C[C@H](C)C2)nc1Cl)C3c1ccc(Cl)cc1F (stereo partly drawn) [Example 1.4.20, 1-(5-(4-Chloro-2-fluorophenyl)-2-methyl-7,8-dihydro-[1,3,4]thiadiazolo[2′,3′:2,3]imidazo[4,5-c]pyridin-6(5H)-yl)-2-((2-chloro-6-((3S,5S)-3,5-dimethylpipe-ridin-1-yl)pyridin-3-yl)oxy)ethanone]	3 nM
Cc1nn2c3c(nc2s1)CCN(C(=O)COc1ccc(N2CCC(F)(F)CC2)nc1Cl)C3c1ccc(Cl)cc1F (centres unmarked) [Example 1.4.32, 1-(5-(4-Chloro-2-fluorophenyl)-2-methyl-7,8-dihydro-[1,3,4]thiadiazolo[2′,3′:2,3]imidazo[4,5-c]pyridin-6(5H)-yl)-2-((2-chloro-6-(4,4-difluoropiperidin-1-yl)pyridin-3-yl)oxy)ethanone]	3 nM
Cc1nn2c3c(nc2s1)CCN(C(=O)COc1cccnc1Cl)C3c1cnc(N(C)C)s1 (centres unmarked) [Example 1.22.7, 2-((2-Chloropyridin-3-yl)oxy)-1-(5-(2-(dimethylamino)thiazol-5-yl)-2-methyl-7,8-dihydro[1,3,4]thiadiazolo[2′,3′:2,3]imidazo[4,5-c]pyridin-6(5H)-yl)ethanone]	81 nM
Cc1nn2c3c(nc2s1)CCN(C(=O)COc1ccc(S(N)(=O)=O)nc1Cl)C3c1ccc(Cl)cc1F (centres unmarked) [Example 1.4.12, 6-Chloro-5-(2-(5-(4-chloro-2-fluorophenyl)-2-methyl-7,8-dihydro-[1,3,4]thiadiazolo[2′,3′:2,3]imidazo[4,5-c]pyridin-6(5H)-yl)-2-oxoethoxy)pyridine-2-sulfonamide]	57 nM
Cc1nn2c3c(nc2s1)CCN(C(=O)COc1ccc(N2CCOCC2)nc1Cl)C3c1cc(C(=O)O)cs1 (centres unmarked) [Example 1.46.1, 5-(6-(2-((2-chloro-6-morpholinopyridin-3-yl)oxy)acetyl)-2-methyl-5,6,7,8-tetrahydro-[1,3,4]thiadiazolo[2′,3′:2,3]imidazo[4,5-c]pyridin-5-yl)thiophene-3-carboxylic acid]	18 nM
Cc1nn2c3c(nc2s1)CCN(C(=O)COc1ccc(N2CCOCC2)nc1Cl)C3c1ncc(C(=O)N(C)C)s1 (centres unmarked) [Example 1.37.5, 2-(6-(2-((2-Chloro-6-morpholinopyridin-3-yl)oxy)acetyl)-2-methyl-5,6,7,8-tetrahydro-[1,3,4]thiadiazolo[2′,3′:2,3]imidazo[4,5-c]pyridin-5-yl)-N,N-dimethylthiazole-5-carboxamide]	9 nM

same assay, conditions: human TPH1, fluorescence readout

Compound	IC50
CCc1cc(Cl)ccc1OCC(=O)N1CCc2nc3sc(C)nn3c2C1c1ccc(C2CC2)cc1F (centres unmarked) [Example 1.6.7, 2-(4-chloro-2-ethylphenoxy)-1-(5-(4-cyclopropyl-2-fluorophenyl)-2-methyl-7,8-dihydro-[1,3,4]thiadiazolo[2′,3′:2,3]imidazo[4,5-c]pyridin-6(5H)-yl)ethanone]	7 nM
2-((2-chloro-6-morpholinopyridin-3-yl)oxy)-1-(5-(4-(2-hydroxypropan-2-yl)thiophen-2-yl)-2-methyl-7,8-dihydro-[1,3,4]thiadiazolo[2′,3′:2,3]imidazo[4,5-c]pyridin-6(5H)-yl)ethanone [Example 1.19.1]	6 nM
CCc1nc(N2CCCS2(=O)=O)ccc1OCC(=O)N1CCc2nc3sc(C(F)(F)F)nn3c2[C@@H]1c1ccc(Cl)cc1F [Example 5.1.4]	7 nM
2-(4-(aminomethyl)-2-chlorophenoxy)-1-(5-(3-fluorothiophen-2-yl)-2-methyl-7,8-dihydro-[1,3,4]thiadiazolo[2′,3′:2,3]imidazo[4,5-c]pyridin-6(5H)-yl)ethanone [Example 1.23.7]	38 nM
CCc1ncccc1OCC(=O)N1CCc2nc3sc(C)nn3c2C1c1cnc(N2CCOCC2)s1 (centres unmarked) [Example 1.7.1, 2-((2-ethylpyridin-3-yl)oxy)-1-(2-methyl-5-(2-morpholinothiazol-5-yl)-7,8-dihydro-[1,3,4]thiadiazolo[2′,3′:2,3]imidazo[4,5-c]pyridin-6(5H)-yl)ethanone]	337 nM
O=C(COc1ccc(Cl)cc1Cl)N1CCc2nc3sccn3c2C1c1cc2cccnc2s1 (centres unmarked) [Example 6.14.1, 2-(2,4-dichlorophenoxy)-1-(5-(thieno[2,3-b]pyridin-2-yl)-7,8-dihydrothiazolo[2′,3′:2,3]imidazo[4,5-c]pyridin-6(5H)-yl)ethanone]	25 nM
Cc1ccc(C2c3c(nc4sccn34)CCN2C(=O)COc2cccnc2Cl)c(F)c1 (centres unmarked) [Example 6.10.3, 2-((2-chloropyridin-3-yl)oxy)-1-(5-(2-fluoro-4-methyl-phenyl)-7,8-dihydrothiazolo[2′,3′:2,3]imidazo[4,5-c]-pyridin-6(5H)-yl)ethanone]	14 nM
COC(=O)c1cnc(C2c3c(nc4sc(C)nn34)CCN2C(=O)COc2ccc(NS(=O)(=O)C3CC3)nc2Cl)s1 (centres unmarked) [Example 1.28.3, Methyl 2-(6-(2-((2-chloro-6-(cyclopropanesulfonamido)pyridin-3-yl)oxy)acetyl)-2-methyl-5,6,7,8-tetrahydro-[1,3,4]thiadiazolo[2′,3′:2,3]imidazo[4,5-c]pyridin-5-yl)thiazole-5-carboxylate]	45 nM
Cc1nn2c3c(nc2s1)CCN(C(=O)COc1ccc(N2CCOCC2)nc1Cl)C3c1csc(C2OCCO2)c1 (centres unmarked) [Example 1.85.1, 1-(5-(5-(1,3-dioxolan-2-yl)thiophen-3-yl)-2-methyl-7,8-dihydro-[1,3,4]thiadiazolo[2′,3′:2,3]imidazo[4,5-c]pyridin-6(5H)-yl)-2-((2-chloro-6-morpholinopyridin-3-yl)oxy)ethan-1-one]	13 nM
Cc1nn2c3c(nc2s1)CCN(C(=O)COc1ccc(N2CCOCC2)nc1Cl)C3c1nc(-c2ccccc2)no1 (centres unmarked) [Example 1.11.3, 2-((2-chloro-6-morpholinopyridin-3-yl)oxy)-1-(2-methyl-5-(3-phenyl-1,2,4-oxadiazol-5-yl)-7,8-dihydro-[1,3,4]thiadiazolo [2′,3′:2,3]imidazo[4,5-c]pyridin-6(5H)-yl)ethanone]	4 nM
CCc1nc(C)ccc1OCC(=O)N1CCc2nc3sccn3c2C1c1c(C)noc1C (centres unmarked) [Example 6.5.1, 1-(5-(3,5-dimethylisoxazol-4-yl)-7,8-dihydrothiazolo-[2′,3′:2,3]imidazo[4,5-c]pyridin-6(5H)-yl)-2-((2-ethyl-6-methylpyridin-3-yl)oxy)ethanone]	117 nM
Cc1nn2c3c(nc2s1)CCN(C(=O)COc1ccc(N(C)C)nc1C)C3c1ccc(C2CC2)cc1F (centres unmarked) [Example 1.6.15, 1-(5-(4-cyclopropyl-2-fluorophenyl)-2-methyl-7,8-dihydro-[1,3,4]thiadiazolo[2′,3′:2,3]imidazo[4,5-c]pyridin-6(5H)-yl)-2-((6-(dimethylamino)-2-methylpyridin-3-yl)oxy)ethanone]	6 nM
CCc1nn2c3c(nc2s1)CCN(C(=O)COc1ccc(N2CCN(C)CC2)nc1Cl)C3c1ccc(Cl)cc1F (centres unmarked) [Example 3.1.4, 1-(5-(4-chloro-2-fluorophenyl)-2-ethyl-7,8-dihydro-[1,3,4]thiadiazolo[2′,3′:2,3]imidazo[4,5-c]pyridin-6(5H)-yl)-2-((2-chloro-6-(4-methylpiperazin-1-yl)pyridin-3-yl)oxy)ethanone]	10 nM
Cc1nn2c3c(nc2s1)CCN(C(=O)COc1ccc(C#N)cc1Cl)C3c1ccc(Cl)cc1F (centres unmarked) [Example 1.4.24, 3-chloro-4-(2-(5-(4-chloro-2-fluorophenyl)-2-methyl-7,8-dihydro-[1,3,4]thiadiazolo[2′,3′:2,3]imidazo[4,5-c]pyridin-6(5H)-yl)-2-oxoethoxy)benzonitrile]	11 nM
Cc1nn2c3c(nc2s1)CCN(C(=O)COc1ccc(C(=O)N(C)C)nc1Cl)C3c1ncc(C2CC2)cc1F (centres unmarked) [Example 1.14.8, 6-chloro-5-(2-(5-(5-cyclopropyl-3-fluoropyridin-2-yl)-2-methyl-7,8-dihydro-[1,3,4]thiadiazolo[2′,3′:2,3]imidazo[4,5-c]pyridin-6(5H)-yl)-2-oxoethoxy)-N,N-dimethylpicolinamide]	3 nM
O=C(COc1cccnc1Cl)N1CCc2nc3sccn3c2C1c1cc2cccnc2s1 (centres unmarked) [Example 6.14.3, 2-((2-chloropyridin-3-yl)oxy)-1-(5-(thieno[2,3-b]pyridin-2-yl)-7,8-dihydrothiazolo[2′,3′:2,3]imidazo[4,5-c]pyridin-6(5H)-yl)ethanone]	67 nM
CCc1nc(NS(C)(=O)=O)ncc1OCC(=O)N1CCc2nc3sc(C)nn3c2[C@@H]1c1ncc(C)cc1F [Example 1.31.19, (R)-N-(4-ethyl-5-(2-(5-(3-fluoro-5-methylpyridin-2-yl)-2-methyl-7,8-dihydro-[1,3,4]thiadiazolo[2′,3′:2,3]imidazo[4,5-c]pyridin-6(5H)-yl)-2-oxoethoxy)pyrimidin-2-yl)methanesulfonamide]	51 nM
CS(=O)(=O)Nc1ccc(OCC(=O)N2CCc3nc4scnn4c3C2c2ccc(Cl)cc2F)c(Cl)n1 (centres unmarked) [Example 2.1.1, N-(6-chloro-5-(2-(5-(4-chloro-2-fluorophenyl)-7,8-dihydro-[1,3,4]thiadiazolo[2′,3′:2,3]imidazo[4,5-c]-pyridin-6(5H)-yl)-2-oxoethoxy)pyridin-2-yl)methanesulfonamide]	11 nM
CCc1nc(C)ccc1OCC(=O)N1CCc2nc3sc(C)nn3c2C1c1cnc(OC(F)F)cc1C (centres unmarked) [Example 1.15.3, 1-(5-(6-(difluoromethoxy)-4-methylpyridin-3-yl)-2-methyl-7,8-dihydro-[1,3,4]thiadiazolo[2′,3′:2,3]imidazo[4,5c]pyridin-6(5H)-yl)-2-((2-ethyl-6-methylpyridin-3-yl)oxy)ethanone]	156 nM
Cc1nn2c3c(nc2s1)CCN(C(=O)COc1ccc(NS(=O)(=O)C2CC2)nc1Cl)C3c1sccc1F (centres unmarked) [Example 1.23.9, N-(6-chloro-5-(2-(5-(3-fluorothiophen-2-yl)-2-methyl-7,8-dihydro-[1,3,4]thiadiazolo[2′,3′:2,3]imidazo[4,5-c]pyridin-6(5H)-yl)-2-oxoethoxy)pyridin-2-yl)cyclopropanesulfonamide]	14 nM
